Experimental data as given in patent publication US8026229B2, “Antitumor-active 2-alkoxyestradiol sulfamates” (Sterix Limited, priority 2001, dated 2011).

Tests used:
tubulin = conditions: literature, J. Med. Chem. 1997, 40, 2323-2334; cited from earlier work
[1] = molecular target: T1, microtubular protein (tubulin) from porcine brains (Sus scrofa, UniProt P02550+P02554); test: Inhibition of tubulin polymerization in vitro (turbidimetry at 340 nm); type: biochemical; conditions: microtubular protein 1 mg/ml, 0.25 mM GTP, 37° C.
T1 construct: Microtubular protein was purified by the method of Shelanski et al; from tissue; host or cells: porcine brain
Description: The inventive compounds were tested in various models. The inventive compounds of general formula I are remarkable in that they inhibit tubulin polymerization more than does 2-methoxyestradiol. The effect on tubulin polymerization was tested in vitro in the following way:
Microtubular protein was purified by the method of Shelanski et al. (Shelanski et al., Proc. Natl. Acad. Sci. USA 1973, 70, 765-8) via cyclic assembly/disassembly from porcine brains. The buffer system used had the following composition: 20 mM PIPES (1,4-piperazinediethanesulfonic acid, pKa 6.8), 80 mM NaCl, 0.5 mM MgCl2, 1 mM EGTA (ethylene glycol bis(2-aminoethyl)tetraacetic acid). Protein concentrations of 1 mg/ml (approx. […] tubulin) were used to test the active substance. The protein was determined by the method of Lowry (Lowry et al., J. Biol. Chem. 1951, 193, 265-75) using bovine serum albumin as standard. The assembly of the microtubuli was carried out in the presence of 0.25 mM GTP and heating of the samples to 37° C.
Microtubulus formation was checked using turbidimetry at a wavelength of 340 nm.
The active substances were tested by adding them at the beginning of the assembly or at the state of equilibrium. Their effectiveness is characterized by deviations in the turbidity curves from those of the control. To check the effect and evaluate the turbidity values measured, a transmission electron microscopic examination (CEM 902 A, Zeiss, Oberkochen, Germany) of the assemblate was always carried out after negative staining with 1% aqueous uranyl acetate.

T1 sequence (P02554 whole entry): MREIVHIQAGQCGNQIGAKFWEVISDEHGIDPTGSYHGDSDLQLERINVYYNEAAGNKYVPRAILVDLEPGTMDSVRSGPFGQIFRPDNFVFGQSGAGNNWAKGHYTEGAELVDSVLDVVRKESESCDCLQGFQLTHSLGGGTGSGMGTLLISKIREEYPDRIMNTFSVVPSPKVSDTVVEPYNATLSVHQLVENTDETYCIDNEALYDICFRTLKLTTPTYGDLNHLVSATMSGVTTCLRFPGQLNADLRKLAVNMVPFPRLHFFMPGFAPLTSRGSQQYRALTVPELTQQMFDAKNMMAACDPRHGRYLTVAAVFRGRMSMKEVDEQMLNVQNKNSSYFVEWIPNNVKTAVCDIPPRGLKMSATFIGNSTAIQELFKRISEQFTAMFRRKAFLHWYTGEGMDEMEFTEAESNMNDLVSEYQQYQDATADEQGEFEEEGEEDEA
T1 sequence (P02550 whole entry): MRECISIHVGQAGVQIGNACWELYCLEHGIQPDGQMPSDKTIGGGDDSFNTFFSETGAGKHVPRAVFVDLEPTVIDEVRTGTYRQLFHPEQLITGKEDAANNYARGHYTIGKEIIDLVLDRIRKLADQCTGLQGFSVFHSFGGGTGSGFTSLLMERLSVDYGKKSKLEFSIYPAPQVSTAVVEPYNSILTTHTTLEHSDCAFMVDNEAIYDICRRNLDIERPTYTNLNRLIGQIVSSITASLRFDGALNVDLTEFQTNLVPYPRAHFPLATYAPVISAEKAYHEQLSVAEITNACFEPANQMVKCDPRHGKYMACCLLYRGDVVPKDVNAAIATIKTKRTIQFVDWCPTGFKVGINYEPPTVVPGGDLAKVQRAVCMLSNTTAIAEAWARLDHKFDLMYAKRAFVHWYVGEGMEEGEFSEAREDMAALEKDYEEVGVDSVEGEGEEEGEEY

| Compound | Activity in inhibition of tubulin polymerization compared with 2-methoxyestradiol (tubulin) | IC50 [1] |
| --- | --- | --- |
| CCOc1cc2c(cc1O)CC[C@@H]1[C@@H]2CC[C@]2(C)[C@@H](O)CC[C@@H]12 [2-ethoxyestradiol] | higher than that of 2-methoxyestradiol |  |
| COc1cc2c(cc1OS(N)(=O)=O)CC[C@@H]1[C@@H]2CC[C@]2(C)[C@@H](O)CC[C@@H]12 [Example 1, 2-Methoxy-17β-hydroxy-estra-1,3,5(10)-trien-3-yl sulfamate] |  | 1000 nM |
| COc1cc2c(cc1O)CCC1C2CC[C@@]2(C)C1CC[C@@H]2O (stereo partly shown) [2-Methoxyestradiol] |  | > 3000 nM |
| COc1cc2c(cc1OS(N)(=O)=O)CCC1C2CC[C@]2(C)C(=O)CCC12 (stereo partly shown) [2-Methoxyestrone-3-sulfamate] |  | 1600 nM |
